molecular target: T1, HDAC6 enzyme (Homo sapiens, UniProt Q9UBN7); experiment: HDAC6 enzyme inhibitory activity (HDAC-Glo I/II Assay kit); format: biochemical; conditions: 10 μM; wells without enzyme = 100% inhibition; read-out: HDAC6 inhibitory rate (%) (10 μM)
T1 construct: transducing full length HDAC6 gene into Sf-9 insect cells; GST; purchased SignalChem; host or cells: Sf-9 insect cells
T1 sequence (Q9UBN7 1-1215): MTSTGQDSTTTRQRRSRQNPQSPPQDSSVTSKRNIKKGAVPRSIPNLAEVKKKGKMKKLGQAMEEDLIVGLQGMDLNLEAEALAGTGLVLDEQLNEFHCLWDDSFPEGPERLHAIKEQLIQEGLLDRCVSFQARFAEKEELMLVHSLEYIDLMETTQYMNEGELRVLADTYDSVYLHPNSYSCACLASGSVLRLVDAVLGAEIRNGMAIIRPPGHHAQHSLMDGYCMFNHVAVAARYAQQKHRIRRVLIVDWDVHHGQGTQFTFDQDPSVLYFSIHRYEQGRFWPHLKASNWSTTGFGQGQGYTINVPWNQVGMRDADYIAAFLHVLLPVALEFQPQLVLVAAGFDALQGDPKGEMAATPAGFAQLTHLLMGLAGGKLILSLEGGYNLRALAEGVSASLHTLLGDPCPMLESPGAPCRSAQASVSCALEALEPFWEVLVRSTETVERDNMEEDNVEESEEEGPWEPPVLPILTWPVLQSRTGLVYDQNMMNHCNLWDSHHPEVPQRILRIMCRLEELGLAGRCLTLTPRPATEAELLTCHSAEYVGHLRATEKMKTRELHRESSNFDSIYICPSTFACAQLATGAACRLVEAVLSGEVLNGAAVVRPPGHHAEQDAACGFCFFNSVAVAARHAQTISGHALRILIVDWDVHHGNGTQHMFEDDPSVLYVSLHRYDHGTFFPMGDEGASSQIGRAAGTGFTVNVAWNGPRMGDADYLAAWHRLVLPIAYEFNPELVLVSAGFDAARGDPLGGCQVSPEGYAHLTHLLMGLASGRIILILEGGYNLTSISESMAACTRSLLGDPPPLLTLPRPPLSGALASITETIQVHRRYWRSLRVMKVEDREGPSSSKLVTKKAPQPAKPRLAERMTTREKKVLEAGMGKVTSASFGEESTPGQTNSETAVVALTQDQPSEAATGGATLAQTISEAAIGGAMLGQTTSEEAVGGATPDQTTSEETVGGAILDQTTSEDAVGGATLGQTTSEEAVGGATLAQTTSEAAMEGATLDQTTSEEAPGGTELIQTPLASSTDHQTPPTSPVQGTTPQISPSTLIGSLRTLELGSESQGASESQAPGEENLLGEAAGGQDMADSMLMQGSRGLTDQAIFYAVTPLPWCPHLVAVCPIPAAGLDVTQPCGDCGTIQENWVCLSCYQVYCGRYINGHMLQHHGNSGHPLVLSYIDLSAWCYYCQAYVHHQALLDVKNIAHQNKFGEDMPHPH
Outline: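 Inhibition is calculated as relative activity, taking luminescence in enzyme-free wells as complete inhibition. The enzyme, full-length and GST-purified after Sf-9 expression, was exposed to compound for 60 min at room temperature before a 20 min HDAC-Glo reaction.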

Row | Compound | inhibition at 10 µM [%]
1 | CC(C)(C)OC(=O)NCC1(N2Cc3c(F)cc(-c4nnc(C(F)F)o4)cc3C2=O)CCCCC1 [Example 341, tert-butyl ((1-(6-(5-(difluoromethyl)-1,3,4-oxadiazol-2-yl)-4-fluoro-1-oxo-1,3-dihydro-2H-isoindol-2-yl)cyclohexyl)-methyl)carbamate] | 82
2 | O=C1c2cc(-c3nnc(C(F)F)o3)cnc2CN1Cc1cccc(Cl)c1 [Example 342, 6-(3-chlorobenzyl)-3-(5-(difluoromethyl)-1,3,4,- oxadiazol-2-yl)-6,7-dihydro-5H-pyrrolo[3,4-b]pyridin-5-one] | 100
3 | O=C1c2cc(-c3nnc(C(F)F)o3)cc(F)c2CN1C[C@@H]1CC(F)(F)CN1S(=O)(=O)C1CC1 [Example 343, 2-(((2S)-1-(cyclopropyl-sulfonyl)-4,4-difluoro-pyrrolidin-2-yl)methyl)-6-(5-(difluoromethyl)-1,3,4-oxadiazol-2-yl)-4-fluoroisoindolin-1-one] | 100
4 | O=C1c2cc(-c3nnc(C(F)F)o3)cc(F)c2CN1C[C@@H]1CC(F)(F)CN1S(=O)(=O)CC(F)(F)F [Example 344, 6-(5-(difluoromethyl)-1,3,4-oxadiazol-2-yl)-2-(((2S)-4,4-difluoro-1-((2,2,2-trifluoro-ethyl)sulfonyl)pyrrolidin-2-yl)methyl)-4-fluoroiso-indolin-1-one] | 100
5 | O=C1c2cc(-c3nnc(C(F)F)o3)cc(F)c2CN1C[C@@H]1CC(F)(F)CN1S(=O)(=O)c1cccc(F)c1 [Example 345, 2-(((2S)-4,4-difluoro-1-((3-fluorophenyl)sulfonyl)-pyrrolidin-2-yl)methyl)-6-(5-(difluoromethyl)-1,3,4-oxadiazol-2-yl)-4-fluoro-isoindolin-1-one] | 99
6 | O=C1c2cc(-c3nnc(C(F)F)o3)cnc2CN1Cc1ccncc1 [Example 346, 3-(5-(difluoromethyl)-1,3,4-oxadiazol-2-yl)-6-(pyridin-4-ylmethyl)-6,7-dihydro-5H-pyrrolo[3,4-b]pyridin-5-one] | 94
7 | O=C1c2cc(-c3nnc(C(F)F)o3)cnc2CN1C1(c2ccc(F)cc2)CC1 [Example 347, 3-(5-(difluoromethyl)-1,3,4-oxadiazol-2-yl)-6-(1-(4-fluorophenyl)cyclopropyl)-6,7-dihydro-5H-pyrrolo[3,4-b]pyridin-5-one] | 98
8 | O=C1c2cc(-c3nnc(C(F)F)o3)cnc2CN1Cc1ccc(F)cc1F [Example 348, 6-(2,4-difluorobenzyl)-3-(5-(difluoromethyl)-1,3,4-oxadiazol-2-yl)-6,7-dihydro-5H-pyrrolo-[3,4-b]pyridin-5-one] | 99
9 | Cc1cc(CN2Cc3ncc(-c4nnc(C(F)F)o4)cc3C2=O)no1 [Example 349, 3-(5-(difluoromethyl)-1,3,4-oxadiazol-2-yl)-6-((5-methyl-1,2-oxazol-3-yl)methyl)-6,7-dihydro-5H-pyrrolo[3,4-b]pyridin-5-one] | 99
10 | O=C1c2cc(-c3nnc(C(F)F)o3)cnc2CN1C1(c2ccccc2F)CC1 [Example 350, 3-(5-(difluoromethyl)-1,3,4-oxadiazol-2-yl)-6-(1-(2-fluorophenyl)cyclopropyl)-6,7-dihydro-5H-pyrrolo[3,4-b]pyridin-5-one] | 99
11 | O=C1c2cc(-c3nnc(C(F)F)o3)cnc2CN1Cc1ccccc1F [Example 351, 3-(5-(difluoromethyl)-1,3,4-oxadiazol-2-yl)-6-(2-fluoro-benzyl)-6,7-dihydro-5H-pyrrolo[3,4-b]pyridin-5-one] | 98
12 | CC(C)(C)OC(=O)N1CC(F)(F)C[C@@H]1CN1Cc2c(F)cc(-c3nnc(C(F)F)o3)cc2C1=O [Example 352, tert-butyl (2R)-2-((6-(5-(difluoromethyl)-1,3,4-oxadiazol-2-yl)-4-fluoro-1-oxo-1,3-dihydro-2H-isoindol-2-yl)methyl)-4,4-difluoropyrrolidine-1-carboxylate] | 99
13 | O=C1c2cc(-c3nnc(C(F)F)o3)cnc2CN1Cc1cc(F)cc(F)c1 [Example 353, 6-(3,5-difluorobenzyl)-3-(5-(difluoromethyl)-1,3,4-oxadiazol-2-yl)-6,7-dihydro-5H-pyrrolo[3,4-b]pyridin-5-one] | 98

Now from value to compound:

Row | inhibition at 10 µM [%] | Compound
14 | 92 | O=C1c2cc(-c3nnc(C(F)F)o3)cc(F)c2CN1C[C@H]1CC(F)(F)CN1 [Example 354, 6-(5-(difluoromethyl)-1,3,4-oxadiazol-2-yl)-2-(((2R)-4,4-difluoropyrrolidin-2-yl)-methyl)-4-fluoroisoindolin-1-one]
15 | 100 | O=C1c2cc(-c3nnc(C(F)F)o3)cnc2CN1Cc1cccc(C(F)(F)F)c1 [Example 355]
16 | 101 | O=C1c2cc(-c3nnc(C(F)F)o3)cc(F)c2CN1C[C@H]1CC(F)(F)CN1S(=O)(=O)C1CC1 [Example 356, 2-(((2R)-1-(cyclopropyl-sulfonyl)-4,4-difluoro-pyrrolidin-2-yl)methyl)-6-(5-(difluoromethyl)-1,3,4-oxadiazol-2-yl)-4-fluoro-isoindolin-1-one]
17 | 98 | COc1ccccc1CN1Cc2ncc(-c3nnc(C(F)F)o3)cc2C1=O [Example 357, 3-(5-(difluoromethyl)-1,3,4-oxadiazol-2-yl)-6-(2-methoxybenzyl)-6,7-dihydro-5H-pyrrolo[3,4-b]-pyridin-5-one]
18 | 102 | O=C1c2cc(-c3nnc(C(F)F)o3)cnc2CN1Cc1ccccc1OC(F)F [Example 358, 6-(2-(difluoromethoxy)-benzyl)-3-(5-(difluoro-methyl)-1,3,4-oxadiazol-2-yl)-6,7-dihydro-5H-pyrrolo-[3,4-b]pyridin-5-one]
19 | 97 | O=C1c2cc(-c3nnc(C(F)F)o3)cnc2CN1Cc1cccnc1 [Example 359, 3-(5-(difluoromethyl)-1,3,4-oxadiazol-2-yl)-6-(pyridin-3-ylmethyl)-6,7-dihydro-5H-pyrrolo[3,4-b]pyridin-5-one]
20 | 103 | O=C1c2cc(-c3nnc(C(F)F)o3)cc(F)c2CN1[C@@H]1CCOC[C@H]1NCC(F)(F)F [Example 360, 6-(5-(difluoromethyl)-1,3,4-oxadiazol-2-yl)-4-fluoro-2-((3S,4R)-3-((2,2,2-trifluoro-ethyl)amino)tetrahydro-2H-pyran-4-yl)isoindolin-1-one]
21 | 101 | O=C1c2cc(-c3nnc(C(F)F)o3)cc(F)c2CN1[C@@H]1COCC[C@H]1NCC(F)(F)F [Example 361, 6-(5-(difluoromethyl)-1,3,4-oxadiazol-2-yl)-4-fluoro-2-((3S,4R)-4-((2,2,2-trifluoro-ethyl)amino)tetrahydro-2H-pyran-3-yl)isoindolin-1-one]
22 | 99 | O=C1c2cc(-c3nnc(C(F)F)o3)cnc2CN1Cc1ccccn1 [Example 362, 3-(5-(difluoromethyl)-1,3,4-oxadiazol-2-yl)-6-(pyridin-2-yl-methyl)-6,7-dihydro-5H-pyrrolo[3,4-b]pyridin-5-one]
23 | 99 | CC(C)(C)OC(=O)N[C@H]1COCC[C@H]1N1Cc2c(F)cc(-c3nnc(C(F)F)o3)cc2C1=O [Example 363, tert-butyl ((3R,4R)-4-(6-(5-(difluoromethyl)-1,3,4-oxadiazol-2-yl)-4-fluoro-1-oxo-1,3-dihydro-2H-isoindol-2-yl)tetrahydro-2H-pyran-3-yl)carbamate]
24 | 87 | N[C@H]1COCC[C@H]1N1Cc2c(F)cc(-c3nnc(C(F)F)o3)cc2C1=O [Example 364, 2-((3R,4R)-3-amino-tetrahydro-2H-pyran-4-yl)-6-(5-(difluoromethyl)-1,3,4-oxadiazol-2-yl)-4-fluoroisoindolin-1-one]
25 | 101 | O=C1c2cc(-c3nnc(C(F)F)o3)cc(F)c2CN1[C@@H]1CCOC[C@@H]1NC(=O)C(F)(F)C(F)(F)F [Example 365, N-((3R,4R)-4-(6-(5-(difluoromethyl)-1,3,4-oxadiazol-2-yl)-4-fluoro-1-oxo-1,3-dihydro-2H-isoindol-2-yl)tetrahydro-2H-pyran-3-yl)-2,2,3,3,3-pentafluoropropanamide]

From patent US10435399B2, “HDAC6 inhibitory heterocyclic compound” (TAKEDA PHARMACEUTICAL COMPANY LIMITED, priority 2017, dated 2019)
